Experimental data reported in US6630499B1, “Control of arthropods in animals” (Aventis CropScience, S.A., priority 1998, dated 2003).

Columns and labels:
Assay type in all cases: in vivo
[1] = tested on: cat fleas (Ctenocephalides felis); experiment: Control of cat fleas on treated dogs (Biological Examples 1-3); settings: dogs, 10 mg/kg, 30 mg/mL in 1:1 dimethyl sulfoxide/corn oil, 1 day post-treatment, versus placebo group
Description: (§1) All dogs were infested with cat fleas (Ctenocephalides felis) and with ticks (Rhipicephalus sanguineus) 1 day prior to administration of the compound. Cats were only infested with fleas. The initial flea and tick counts were performed 1 day after the administration of the compounds. At 7, 14, 21 and 28 days after treatment the dogs were re-infested with ticks and 8, 15, 22 and 29 days after treatment the dogs and cats were re-infested with fleas. At 1, 9, 16, 23 and 30 days after treatment the control of fleas and ticks in treated dogs and cats was determined versus a group of infested dogs and cats which received a placebo consisting of a 1:1 volume/volume solution of dimethyl sulfoxide and corn oil. To determine the efficacies of the compounds, the arthropods were combed from the animals and counted.
(§2) The compounds listed below were formulated and tested as described in Biological Example 1, again at the dosage level of active ingredient of 10 mg/kg in dogs and 20 mg/kg in cats. Results at 1 DPT (day post-treatment) are tabulated below, where the compound numbers are the same as those listed in Tables 1, 2, 4, 5, 6, 7, 8, 9, 10, 11, 12 and 13 hereinabove.
(§3) Testing was carried out as described in Biological Example 1. […] The Huang et al compound was deemed to have insufficient activity to be tested in cats.

[2] = tested on: cat fleas (Ctenocephalides felis); experiment: Control of cat fleas on treated cats (Biological Examples 1-3); settings: cats, 20 mg/kg, 30 mg/mL in 1:1 dimethyl sulfoxide/corn oil, 1 day post-treatment, versus placebo group
Description: as §1, §2, §3

[3] = Emesis in treated cats; settings: cats, 20 mg/kg
Description: (§4) By the term “emesis” is meant vomiting. Generally an emetic substance elicits emesis in less than 24 hours after administration, usually less than 8 hours, more usually less than 2 hours. By the term “substantially non-emetic” is meant that, generally, when a compound or composition of the invention is administered to a population of animals, more than 70% (or at least ⅔) of the animals are free of emesis. Preferably, more than 80%, most preferably more than 90%, of said population is free of emesis.
(§5) In the animals treated with the compounds above, there was substantially no emesis after 2, 8 and 24 hours. Generally long-term control of fleas and ticks was provided in dogs. In the cats treated, there was commercially acceptable control of fleas for at least one day post treatment.
as §2

[4] = tested on: ticks (Rhipicephalus sanguineus); experiment: Control of ticks on treated dogs (Biological Examples 1-3); settings: dogs, 10 mg/kg, 30 mg/mL in 1:1 dimethyl sulfoxide/corn oil, 1 day post-treatment, versus placebo group
Description: as §1, §2, §3

[5] = Emesis in treated dogs; settings: dogs, 10 mg/kg
Description: as §4, §5, §2

SMILES: COCC(=O)N(C)c1c(S(=O)(=O)C(F)(F)F)c(C#N)nn1-c1c(Cl)cc(C(F)(F)F)cc1Cl [Compound 2-5]
- % Control 1 DPT (Fleas/Ticks): Fleas [1]: 100%
- % Control 1 DPT (Fleas) [2]: 100%
- % Emesis [3]: 0%
- % Control 1 DPT (Fleas/Ticks): Ticks [4]: 95%
- % Emesis [5]: 33%

SMILES: CCOCC(=O)N(C)c1c(SC(F)(F)F)c(C#N)nn1-c1c(Cl)cc(C(F)(F)F)cc1Cl [Compound 3-1]
- % Control 1 DPT (Fleas/Ticks): Fleas [1]: 100%
- % Control 1 DPT (Fleas) [2]: 100%
- % Emesis [3]: 0%
- % Control 1 DPT (Fleas/Ticks): Ticks [4]: 96%
- % Emesis [5]: 0%

SMILES: CCOCC(=O)N(C)c1c(S(=O)(=O)C(F)(F)F)c(C#N)nn1-c1c(Cl)cc(C(F)(F)F)cc1Cl [Compound 3-5]
- % Control 1 DPT (Fleas/Ticks): Fleas [1]: 100/100%
- % Control 1 DPT (Fleas) [2]: 100%
- % Emesis [3]: 0%
- % Control 1 DPT (Fleas/Ticks): Ticks [4]: 100/100%
- % Emesis [5]: 33%

SMILES: CC(C)N(C(=O)C1CCCO1)c1c(SC(F)(F)F)c(C#N)nn1-c1c(Cl)cc(C(F)(F)F)cc1Cl (stereo not shown) [Compound 3-7]
- % Control 1 DPT (Fleas/Ticks): Fleas [1]: 100/100%
- % Control 1 DPT (Fleas) [2]: 100%
- % Emesis [3]: 0%
- % Control 1 DPT (Fleas/Ticks): Ticks [4]: 100/100%
- % Emesis [5]: 0%

SMILES: CCOCC(=O)N(c1c(SC(F)(F)F)c(C#N)nn1-c1c(Cl)cc(C(F)(F)F)cc1Cl)C1CC1 [Compound 3-12]
- % Control 1 DPT (Fleas/Ticks): Fleas [1]: 99%
- % Control 1 DPT (Fleas) [2]: 97%
- % Emesis [3]: 25%
- % Control 1 DPT (Fleas/Ticks): Ticks [4]: 97%
- % Emesis [5]: 0%

SMILES: CC(C)OCC(=O)N(C)c1c([S+]([O-])C(F)(F)F)c(C#N)nn1-c1c(Cl)cc(C(F)(F)F)cc1Cl (stereo not shown) [Compound 4-3]
- % Control 1 DPT (Fleas/Ticks): Fleas [1]: 100/100%
- % Control 1 DPT (Fleas) [2]: 100%
- % Emesis [3]: 25%
- % Control 1 DPT (Fleas/Ticks): Ticks [4]: 100/100%
- % Emesis [5]: 33%

SMILES: CCCN(C(=O)COCC)c1c(SC(F)(F)F)c(C#N)nn1-c1c(Cl)cc(C(F)(F)F)cc1Cl [Compound 13-1]
- % Control 1 DPT (Fleas/Ticks): Fleas [1]: 99%
- % Control 1 DPT (Fleas) [2]: 61%
- % Emesis [3]: 0%
- % Control 1 DPT (Fleas/Ticks): Ticks [4]: 97%
- % Emesis [5]: 0%

SMILES: COCC(=O)N(CC1CC1)c1c(S(=O)(=O)C(F)(F)F)c(C#N)nn1-c1c(Cl)cc(C(F)(F)F)cc1Cl [Compound 27-5]
- % Control 1 DPT (Fleas/Ticks): Fleas [1]: 100/100%
- % Control 1 DPT (Fleas) [2]: 100%
- % Emesis [3]: 0%
- % Control 1 DPT (Fleas/Ticks): Ticks [4]: 100/100%
- % Emesis [5]: 0%

SMILES: CC(=O)OCC(=O)N(C)c1c(SC(F)(F)F)c(C#N)nn1-c1c(Cl)cc(C(F)(F)F)cc1Cl [Compound 36-1]
- % Control 1 DPT (Fleas/Ticks): Fleas [1]: 71%
- % Control 1 DPT (Fleas) [2]: 100%
- % Emesis [3]: 25%
- % Control 1 DPT (Fleas/Ticks): Ticks [4]: 92%
- % Emesis [5]: 0%

SMILES: COC(=O)N(C)c1c(SC(F)(F)F)c(C#N)nn1-c1c(Cl)cc(C(F)(F)F)cc1Cl [Compound 67-1]
- % Control 1 DPT (Fleas/Ticks): Fleas [1]: 100/100%
- % Control 1 DPT (Fleas) [2]: 53%
- % Emesis [3]: 0%
- % Control 1 DPT (Fleas/Ticks): Ticks [4]: 100/100%
- % Emesis [5]: 33%

SMILES: CCOC(=O)N(C)c1c(SC(F)(F)F)c(C#N)nn1-c1c(Cl)cc(C(F)(F)F)cc1Cl [Compound 68-1, 3-cyano-1-(2,6-dichloro-4-trifluoromethylphenyl)-5-(N-ethoxycarbonyl-N-methyl)amino-4-trifluoromethylthiopyrazole]
- % Control 1 DPT (Fleas/Ticks): Fleas [1]: 100%
- % Control 1 DPT (Fleas) [2]: 100%
- % Emesis [3]: 0%
- % Control 1 DPT (Fleas/Ticks): Ticks [4]: 77%
- % Emesis [5]: 0%

SMILES: CC(C)OC(=O)N(C)c1c(SC(F)(F)F)c(C#N)nn1-c1c(Cl)cc(C(F)(F)F)cc1Cl [Compound 69-1]
- % Control 1 DPT (Fleas/Ticks): Fleas [1]: 98%
- % Control 1 DPT (Fleas) [2]: 100%
- % Emesis [3]: 0%
- % Control 1 DPT (Fleas/Ticks): Ticks [4]: 94%
- % Emesis [5]: 0%

SMILES: CCCOC(=O)N(C)c1c(SC(F)(F)F)c(C#N)nn1-c1c(Cl)cc(C(F)(F)F)cc1Cl [Compound 70-1]
- % Control 1 DPT (Fleas/Ticks): Fleas [1]: 99%
- % Control 1 DPT (Fleas) [2]: 85%
- % Emesis [3]: 0%
- % Control 1 DPT (Fleas/Ticks): Ticks [4]: 100%
- % Emesis [5]: 0%

SMILES: CCN(C(=O)OC)c1c(SC(F)(F)F)c(C#N)nn1-c1c(Cl)cc(C(F)(F)F)cc1Cl [Compound 71-1]
- % Control 1 DPT (Fleas/Ticks): Fleas [1]: 100/100%
- % Control 1 DPT (Fleas) [2]: 100%
- % Emesis [3]: 50%
- % Control 1 DPT (Fleas/Ticks): Ticks [4]: 100/100%
- % Emesis [5]: 0%

SMILES: CCOC(=O)N(CC)c1c(SC(F)(F)F)c(C#N)nn1-c1c(Cl)cc(C(F)(F)F)cc1Cl [Compound 72-1]
- % Control 1 DPT (Fleas/Ticks): Fleas [1]: 100%
- % Control 1 DPT (Fleas) [2]: 99%
- % Emesis [3]: 0%
- % Control 1 DPT (Fleas/Ticks): Ticks [4]: 97%
- % Emesis [5]: 0%

SMILES: CCN(C(=O)OC(C)C)c1c(SC(F)(F)F)c(C#N)nn1-c1c(Cl)cc(C(F)(F)F)cc1Cl [Compound 73-1]
- % Control 1 DPT (Fleas/Ticks): Fleas [1]: 100/100%
- % Control 1 DPT (Fleas) [2]: 93%
- % Emesis [3]: 0%
- % Control 1 DPT (Fleas/Ticks): Ticks [4]: 100/100%
- % Emesis [5]: 0%

SMILES: CCCOC(=O)N(CC)c1c(SC(F)(F)F)c(C#N)nn1-c1c(Cl)cc(C(F)(F)F)cc1Cl [Compound 74-1]
- % Control 1 DPT (Fleas/Ticks): Fleas [1]: 99%
- % Control 1 DPT (Fleas) [2]: 100%
- % Emesis [3]: 0%
- % Control 1 DPT (Fleas/Ticks): Ticks [4]: 87%
- % Emesis [5]: 0%

SMILES: CCCN(C(=O)OC)c1c(SC(F)(F)F)c(C#N)nn1-c1c(Cl)cc(C(F)(F)F)cc1Cl [Compound 75-1]
- % Control 1 DPT (Fleas/Ticks): Fleas [1]: 89%
- % Control 1 DPT (Fleas) [2]: 71%
- % Emesis [3]: 25%
- % Control 1 DPT (Fleas/Ticks): Ticks [4]: 57%
- % Emesis [5]: 0%

SMILES: CCCN(C(=O)OCC)c1c(SC(F)(F)F)c(C#N)nn1-c1c(Cl)cc(C(F)(F)F)cc1Cl [Compound 76-1]
- % Control 1 DPT (Fleas/Ticks): Fleas [1]: 100%
- % Control 1 DPT (Fleas) [2]: 100%
- % Emesis [3]: 0%
- % Control 1 DPT (Fleas/Ticks): Ticks [4]: 86%
- % Emesis [5]: 0%

SMILES: CCCN(C(=O)OC(C)C)c1c(SC(F)(F)F)c(C#N)nn1-c1c(Cl)cc(C(F)(F)F)cc1Cl [Compound 77-1]
- % Control 1 DPT (Fleas/Ticks): Fleas [1]: 98%
- % Control 1 DPT (Fleas) [2]: 99%
- % Emesis [3]: 0%
- % Control 1 DPT (Fleas/Ticks): Ticks [4]: 10%
- % Emesis [5]: 0%

SMILES: COC(=O)N(c1c(SC(F)(F)F)c(C#N)nn1-c1c(Cl)cc(C(F)(F)F)cc1Cl)C(C)C [Compound 79-1]
- % Control 1 DPT (Fleas/Ticks): Fleas [1]: 96%
- % Control 1 DPT (Fleas) [2]: 87%
- % Emesis [3]: 0%
- % Control 1 DPT (Fleas/Ticks): Ticks [4]: 86%
- % Emesis [5]: 0%

SMILES: CCOC(=O)N(c1c(SC(F)(F)F)c(C#N)nn1-c1c(Cl)cc(C(F)(F)F)cc1Cl)C(C)C [Compound 80-1]
- % Control 1 DPT (Fleas/Ticks): Fleas [1]: 100%
- % Control 1 DPT (Fleas) [2]: 99%
- % Emesis [3]: 0%
- % Control 1 DPT (Fleas/Ticks): Ticks [4]: 94%
- % Emesis [5]: 0%

SMILES: CC(C)OC(=O)N(c1c(SC(F)(F)F)c(C#N)nn1-c1c(Cl)cc(C(F)(F)F)cc1Cl)C(C)C [Compound 81-1]
- % Control 1 DPT (Fleas/Ticks): Fleas [1]: 76%
- % Control 1 DPT (Fleas) [2]: 100%
- % Emesis [3]: 0%
- % Control 1 DPT (Fleas/Ticks): Ticks [4]: 66%
- % Emesis [5]: 0%
